In US20200370033A1, “BIOLOGICAL ASSEMBLY INCLUDING BIOLOGICAL COMPONENT AND SHIELD” (Regents of the University of Minnesota, priority 2018, published 2020):

Experiments:
[1] = Detergent and micelle properties; format: physicochemical; settings: for Est. Micelle MW: estimated micelle molecular weight
[2] = test system: E. coli DH5α expressing homoprotocatechuate 2,3-dioxygenase (2,3-HPCD); format: cell-based; settings: 1% w/v for 20 minutes
Procedure: A 200 μL aliquot of 500 μM DHPAC in 50 mM PB at pH 7.5 was added to each well and A380 was measured for up to one hour. The data was then fit to a first order reaction model of the form:
Cp(t)=Cs,0(1−e^−k^r^t) (4)
Cp is the product concentration, Cs,0 is the initial substrate concentration, and kr is the first order reaction rate constant.

[3] = detergent micelle; cited from earlier work

Substance	Est. Micelle MW [1] [kDa]	change in biocatalytic activity after detergent/surfactant treatment [2]	Aggregation Number [3]	micelle hydrodynamic radii [1] [nm]
polysorbate 85 [Tween 85]	110	modest	60	
polyethylene glycol p-(1,1,3,3-tetramethylbutyl)-phenyl ether [Triton X-100]	228	modest	140	~4
